Assay results from patent US20220324835A1 (Nurix Therapeutics, Inc., priority 2018, published 2022).

Assays:
Type in all cases: cell-based
[1] = system: primary human total T-cells; experiment: T-cell activation assessed by cytokine secretion (GM-CSF, IFNγ, TNFα)
From the text: (§1) Peripheral blood mononuclear cells (PBMC) were obtained either: 1) by using Ficoll-Paque™ (GE Healthcare) for separation of peripheral blood hematopoietic cells from buffy coats of healthy human donors; or 2) directly from FeukoPak donations. Total human primary T-cells were isolated from the PMBCs utilizing negative selection with commercial kits following the manufacturer's protocol (Miltenyi Catalog #130-096-535 (i.e., cocktail of antibodies against surface markers CD14, CD15, CD16, CD19, CD34, CD36, CD56, CD123 and CD235a are incubated with the PBMCs before passing the samples by magnetic beads for removal of cells expressing those surface markers) or StemCells Catalog #17951) to yield >95% CD3+ cells as assessed by flow cytometry. For measurement of cell proliferation, cells were labeled with Cell Trace Violet (Invitrogen) following manufacturer's protocol prior to activation by stimulation with anti-CD3 antibody alone or in combination with anti-CD28 antibody. The Cbl-b inhibitor was added to 1×10^5 cells per well at multiple concentrations (e.g., 10 μM, 1.11 μM, or 0.123 μM) with a final DMSO concentration of <0.1%. The plate was incubated for one hour at 37° C. in 5% CO2. Following incubation with the Cbl-b inhibitor, primary human total T-cells were stimulated with either plate bound anti-CD3 antibody (OKT3) alone or plate bound anti-CD3 antibody (OKT3) with soluble anti-CD28 antibody (28.2) (Life Technologies). To prepare plates with plate bound anti-CD3 antibody (OKT3), 96-well round bottom tissue culture plates were coated with 100 μl of anti-CD3 antibody (OKT3) at 10 μg/mL for 4 hours at 37° C. 5% CO2 in phosphate buffered saline (PBS). The plates were washed with PBS prior to adding the cells with or without soluble anti-CD28 antibody (28.2) to each well at a final concentration of 5 μg/mL. Cells were stimulated for 48 hours prior to harvesting the cell free supernatant and staining the cell population for surface marker assessment by flow cytometry. Supernatants were analyzed for cytokine secretion (e.g., GM-CSF, IFNγ and TNFα) by ELISA (R&D Systems, Peprotech or Life Technologies) or Luminex multiplex kits (Procarta Life Technologies) following manufacturer's protocol. Cells were stained with anti-CD69 (BD Biosciences) to assess levels of surface markers of activation. Proliferation was measured by flow cytometry and data was analyzed with FlowJo v7.6.5 or v10. Readouts were reported as fold change over baseline. In some embodiments, baseline was the measurement obtained from total human T-cells stimulated with anti-CD3 antibody alone, wherein the cells were not incubated with a Cbl-b inhibitor. In some embodiments, baseline was the measurement obtained from total human T-cells stimulated with anti-CD3 antibody and anti-CD28 antibody, where the cells were not incubated with a Cbl-b inhibitor.
(§2) Cbl-b inhibitors were tested to determine their ability to induce or enhance secretion of cytokines from T-cells (e.g., GM-CSF, IFNγ and TNFα) and/or surface expression of cell surface markers on T-cells (e.g., CD69) that is indicative of T-cell activation. Cbl-b inhibitors were also tested to determine their ability to induce or enhance T-cell proliferation. Cbl-b inhibitors were tested for their effects on T-cell activation in the presence of costimulation and where conditions were suboptimal for priming.
(§3) Readouts for T-cell activation were reported as fold change over baseline. Baseline for this study was the measurement obtained from total human T-cells stimulated with anti-CD3 antibody alone or anti-CD3 antibody in combination with soluble anti-CD28 antibody, where the cells were not incubated with a Cbl-b inhibitor. For T-cells stimulated with anti-CD3/anti-CD28 or with anti-CD3 alone changes greater than 1,2-fold over baseline for % positive CD69 staining and greater than 2-fold over baseline for % total proliferating cells were considered a significant and positive response (Table 4a). […]

[2] = system: primary human total T-cells; experiment: T-cell activation assessed by CD69 expression
From the text: as §1, §2, §3

[3] = system: primary human total T-cells; experiment: T-cell activation assessed by cell proliferation (Cell Trace Violet)
From the text: as §1, §2, §3

[4] = CD3/CD28 stimulation, read-out: GM-CSF secretion
[5] = CD3/CD28 stimulation, read-out: IFNγ secretion
[6] = CD3/CD28 stimulation, read-out: TNFα secretion
[7] = CD3 alone stimulation, read-out: GM-CSF secretion
[8] = CD3 alone stimulation, read-out: IFNγ secretion
[9] = CD3 alone stimulation, read-out: TNFα secretion
[10] = CD3/CD28 stimulation, CD4 T-cells, read-out: % CD69+ (CD4)
[11] = CD3/CD28 stimulation, CD8 T-cells, read-out: % CD69+ (CD8)
[12] = CD3 alone stimulation, CD4 T-cells, read-out: % CD69+ (CD4)
[13] = CD3 alone stimulation, CD8 T-cells, read-out: % CD69+ (CD8)
[14] = CD3/CD28 stimulation, CD4 T-cells, read-out: % CP (cell proliferation) (CD4)
[15] = CD3/CD28 stimulation, CD8 T-cells, read-out: % CP (cell proliferation) (CD8)
[16] = CD3 alone stimulation, CD8 T-cells, read-out: % CP (cell proliferation) (CD8)

SMILES	fold induction at 1.11 µM [1, 4]	fold induction at 1.11 µM [1, 5]	fold induction at 1.11 µM [1, 6]	fold induction at 10 µM [1, 4]	fold induction at 10 µM [1, 5]	fold induction at 10 µM [1, 6]	fold induction at 1.11 µM [1, 7]	fold induction at 1.11 µM [1, 8]	fold induction at 1.11 µM [1, 9]	fold induction at 10 µM [1, 7]	fold induction at 10 µM [1, 8]	fold induction at 10 µM [1, 9]	fold induction at 1.11 µM [2, 10]	fold induction at 10 µM [2, 10]	fold induction at 1.11 µM [2, 11]	fold induction at 10 µM [2, 11]	fold induction at 1.11 µM [2, 12]	fold induction at 10 µM [2, 12]	fold induction at 1.11 µM [2, 13]	fold induction at 10 µM [2, 13]	other results
C[C@H](Cc1nncn1C)c1cccc(N2Cc3c(cc(CN4CC(O)C4)cc3C(F)(F)F)C2=O)c1 [Compound 393, (R)-6-((3-hydroxyazetidin-1-yl)methyl)-2-(3-(1-(4-methyl-4H-1,2,4-triazol-3-yl)propan-2-yl)phenyl)-4-(trifluoromethyl)isoindolin-1-one]	≤ 1.5	2.01 to 3	≤ 1.5	1.51 to 2	> 4	1.51 to 2	≤ 1.5	< 2	≤ 1.5	≤ 1.5	< 2	≤ 1.5	≤ 1.2	1.2 to 1.4	≤ 1.2	≤ 1.2	1.2 to 1.4	1.2 to 1.4	≤ 1.2	≤ 1.2	fold induction at 1.11 µM [3, 14]: < 2; fold induction at 10 µM [3, 14]: 3.01 to 4; fold induction at 1.11 µM [3, 15]: < 2; fold induction at 10 µM [3, 15]: 2.01 to 3; fold induction at 1.11 µM [3, 16]: < 2; fold induction at 10 µM [3, 16]: < 2
C[C@H](Cc1nncn1C)c1cccc(N2Cc3c(cc(CN4CC(C)(O)C4)cc3C(F)(F)F)C2=O)c1 [Compound 397]	2.01 to 4	2.01 to 3	2.01 to 4	> 4	> 4	2.01 to 4	2.01 to 4	< 2	1.51 to 2	2.01 to 4	< 2	1.51 to 2	1.4 to 1.6	1.4 to 1.6	1.2 to 1.4	1.2 to 1.4	> 1.6	> 1.6	1.2 to 1.4	1.4 to 1.6	fold induction at 1.11 µM [3, 14]: > 4; fold induction at 10 µM [3, 14]: > 4; fold induction at 1.11 µM [3, 15]: 3.01 to 4; fold induction at 10 µM [3, 15]: > 4; fold induction at 1.11 µM [3, 16]: > 4; fold induction at 10 µM [3, 16]: > 4
C[C@H](Cc1nncn1C)c1cccc(N2Cc3c(cc(CN4CC[C@](C)(O)C4)cc3C(F)(F)F)C2=O)c1 [Compound 398, 6-(((S)-3-hydroxy-3-methylpyrrolidin-1-yl)methyl)-2-(3-((R)-1-(4-methyl-4H-1,2,4-triazol-3-yl)propan-2-yl)phenyl)-4-(trifluoromethyl)isoindolin-1-one]	2.01 to 4	3.01 to 4	2.01 to 4	> 4	> 4	2.01 to 4	2.01 to 4	< 2	≤ 1.5	> 4	< 2	2.01 to 4	1.4 to 1.6	1.4 to 1.6	1.2 to 1.4	1.2 to 1.4	> 1.6	> 1.6	1.2 to 1.4	1.4 to 1.6	fold induction at 1.11 µM [3, 14]: > 4; fold induction at 10 µM [3, 14]: > 4; fold induction at 1.11 µM [3, 15]: 3.01 to 4; fold induction at 10 µM [3, 15]: > 4; fold induction at 1.11 µM [3, 16]: > 4; fold induction at 10 µM [3, 16]: > 4
C[C@H](Cc1nncn1C)c1cccc(N2Cc3c(cc(CN4CC[C@H](F)C4)cc3C(F)(F)F)C2=O)c1 [Compound 399, 6-(((S)-3-fluoropyrrolidin-1-yl)methyl)-2-(3-((R)-1-(4-methyl-4H-1,2,4-triazol-3-yl)propan-2-yl)phenyl)-4-(trifluoromethyl)isoindolin-1-one]	> 4	> 4	2.01 to 4	> 4	> 4	2.01 to 4	2.01 to 4	3.01 to 4	2.01 to 4	> 4	> 4	1.51 to 2	> 1.6	> 1.6	1.2 to 1.4	1.2 to 1.4	> 1.6	> 1.6	1.4 to 1.6	1.4 to 1.6	fold induction at 1.11 µM [3, 14]: > 4; fold induction at 10 µM [3, 14]: > 4; fold induction at 1.11 µM [3, 15]: > 4; fold induction at 10 µM [3, 15]: > 4; fold induction at 1.11 µM [3, 16]: > 4; fold induction at 10 µM [3, 16]: > 4
